Laboratory results taken from PubChem BioAssay AID397 (SGCOxCompounds, 2006).

Target: GTP-binding protein GEM (Homo sapiens) (UniProt P55040)
Test: ligand-induced stabilization of human GEM GTPase – biophysical, DSF, SYPRO orange, purified protein (AID 397)
Conditions: DSF SYPRO orange thermal shift, at 10 µM, protein 2 µM, buffer 10 mM HEPES, pH 7.5, NaCl 150 mM, stronger effect = higher value
[1] = DTT 1000 µM, with dithiothreitol

Sequence of GTP-binding protein GEM (Homo sapiens) (P55040 whole entry, looked up): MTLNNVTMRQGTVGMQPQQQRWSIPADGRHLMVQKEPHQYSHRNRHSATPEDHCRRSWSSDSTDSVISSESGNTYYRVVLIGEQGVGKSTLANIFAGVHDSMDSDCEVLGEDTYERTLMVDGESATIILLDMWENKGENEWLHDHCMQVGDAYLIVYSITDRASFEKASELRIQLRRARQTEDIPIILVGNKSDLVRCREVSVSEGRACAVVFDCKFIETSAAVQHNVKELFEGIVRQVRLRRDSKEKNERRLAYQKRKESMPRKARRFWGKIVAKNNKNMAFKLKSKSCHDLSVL

Structure (SMILES)	Tm shift [1] [Celsius]	Tm shift (DTT 1 mM) [Celsius]	further results
Ic1cccc(CSc2nnc(-c3ccncc3)o2)c1	2.4	–	–
Brc1c(Br)c(Br)c2n[nH]nc2c1Br	–	–	Tm shift (GDP 40 µM): 2.5 Celsius
N#CC(Cc1ccc(O)c(O)c1)C(=O)Nc1ccccc1 (stereo unspecified)	2.7	–	–
CC(C)n1cnc2c(Nc3cccc(Cl)c3)nc(NCCO)nc21	2.3	–	–
Nc1cc2ncnc(Nc3cccc(Br)c3)c2cc1N	–	3.5	–
COc1cc(O)c2c(c1)oc(=O)c1c3cc(O)c(O)cc3oc21	–	–	Tm shift (GDP 40 µM): 2.3 Celsius
Oc1ccc(-c2nc(-c3ccc(F)cc3)c(-c3ccncc3)[nH]2)cc1	–	6	–
C/C(O)=C(\C#N)C(=O)Nc1cc(Br)ccc1Br	2.2	–	–
N#C/C(=C(/N)Sc1ccc(N)cc1)c1ccccc1C(F)(F)F	2.8	–	–
Nc1[nH]nc2nc3ccccc3nc12	2.5	–	–
O=C1Nc2ccccc2/C1=C\c1cnc[nH]1	2.5	–	–
CC(O)(O)C1(O)C[C@@H]2O[C@@]1(C)n1c3ccccc3c3c4c(c5c6ccccc6n2c5c31)C(=O)NC4 (stereo partly specified)	3	–	–
CN(C)CCCn1cc(C2=C(c3c[nH]c4ccccc34)C(=O)NC2=O)c2ccccc21	–	3.2	–
NC(=O)c1ccc(-c2nc(-c3ccc4c(c3)OCCO4)c(-c3ccccn3)[nH]2)cc1	–	4.5	–
COc1cc2ncnc(Nc3cccc(Br)c3)c2cc1OC	–	5.4	–
COC(=O)/C=C/c1cc(O)ccc1O	–	3.2	–

Structure (SMILES)	Tm shift [1] [Celsius]	Tm shift (DTT 1 mM) [Celsius]	further results
O=c1cc(-c2ccc(O)cc2)oc2cc(O)cc(O)c12	–	4.1	–
CCOc1c(Br)ccc2c1sc1nc[nH]c(=O)c12	–	–	Tm shift: 3.1 Celsius
CN(C)S(O)(O)c1ccc2c(c1)/C(=C/c1cc3c([nH]1)CCCC3)C(=O)N2	–	3.1	–
Cc1ccc(NC(=O)c2snc3c(=O)[nH]cnc23)cc1	–	–	Tm shift: 2.1 Celsius
COc1cc(/C=C/C(=O)CC(=O)/C=C/c2ccc(O)c(OC)c2)ccc1O	–	–	Tm shift (GDP 40 µM): 2.4 Celsius
CC[C@H](CO)Nc1nc(NCc2ccccc2)c2ncn(C(C)C)c2n1	2.1	–	–
Cc1ccc2c(c1Br)C(=Nc1ccc(Cl)cc1)C(=O)N2	–	–	Tm shift: 2.3 Celsius
O=c1c(-c2ccc(O)cc2)coc2cc(O)cc(O)c12	–	5	–
C=C(Nc1cc(NC(=O)c2cccc(N(C)C)c2)ccc1C)c1ccc(O)cc1	2.8	–	–
O=C1NC(=O)c2c1c1c3ccccc3[nH]c1c1[nH]c3cc(Br)ccc3c21	–	–	Tm shift (DTT 1 mM, GDP 40 µM, MgCl 1 mM): 3.1 Celsius
CC(C)(C)c1nc2c3cc[nH]c(=O)c3c3cc(F)ccc3c2[nH]1	3	–	–
O=S(=O)(c1cccc2c(Cl)cccc12)N1CCCNCC1	2.8	–	–
Oc1cc(O)cc(/C=C/c2ccc(O)c(O)c2)c1	2.3	–	–
CCCCc1c(-c2ccc(O)cc2)[nH]c2nccnc12	2.7	–	–
NC1=N/C(=C2/CCNC(=O)c3[nH]c(Br)cc32)C(=O)N1	–	3.1	–
